Measurements reported in patent US5236912A, “Antiandrogenic [3,2-c]pyrazole and [3,2-d]triazole steroids” (Schering Aktiengesellschaft, priority 1990, dated 1993).
Values joined by “and” are separate entries in the source; they are usually repeats but may differ in a detail not shown here. Equal entries are not always repeated.

Columns and labels:
[1] = system: orchiectomized, testosterone propionate-substituted rats; assay: classical antiandrogen test on orchiectomized, testosterone propionate-substituted rats (inhibition of prostate weight); format: in vivo; details: 3 mg s.c.; for Antiandrogen Test: % Inhibition of Prostate Weight: orchiectomized, testosterone propionate-substituted rats (0.1 mg/animal/day), seven day treatment
Method: These two compounds, the classical antiandrogen test on orchiectomized, testosterone propionate-substituted rats (dose: 0.1 mg/animal/day) show, after a seven day treatment (s.c.) with 3 mg/animal/day) of the antiandrogen, merely about 30% of the antiandrogenic potency of cyproterone acetate (17α-acetoxy-6-chlor-1α,2α-methylene-4,6-pregnadiene-3,20-dione) which constitutes the standard antiandrogen (Friedmund Neumann, Rudolf Wiechert, "Die Geschichte von Cyproteronacetat, Ungewoehnliche Wege bei der Entwicklung eines Arzneimittels" [The History of Cyproterone Acetate, the Development of a Medicine Along Unusual Routes], MPS Medizinisch-Pharmazeutische Studiengesellschaft e.V. [Association for Medical-Pharmaceutical Studies] Mainz, Mainz (1984).

testosterone levels [2] = assay: peripheral selectivity / counter regulation: testosterone levels in rats after administration of the compound; format: in vivo; details: for Counter Regulation: testosterone levels 24 hours after 10 mg s.c., lack of counter regulation = peripheral selectivity
Method: In order to test peripheral selectively, the testosterone levels are measured in rats 24 hours after administration of 10 mg s.c. of the compound: lack of counter regulation is evaluated as peripheral selectively.

testosterone levels [3] = details: in words, background statement; cited from earlier work
[4] = system: orchiectomized, testosterone propionate-substituted rats; details: compound described in EP 0 207 375 A1; cited from earlier work

| Structure (SMILES) | Antiandrogen Test: % Inhibition of Prostate Weight [1] [%] | Counter Regulation (testosterone levels [2]) | Antiandrogen Test: % Inhibition of Prostate Weight, comparison Cyproterone Acetate (value in parentheses) ([1]; cyproterone acetate comparison value) | effect on the hypothalamus-hypophysis system (testosterone levels [3]) | testosterone level in the serum (testosterone levels [2]; central effect (counter regulation by feedback)) | peripheral selectivity (testosterone levels [2]; lack of counter regulation is evaluated as peripheral selectivity) | antiandrogen activity compared with cyproterone acetate [4] |
| --- | --- | --- | --- | --- | --- | --- | --- |
| CC12Cc3cn(S(C)(=O)=O)nc3C=C1CCC1C2CCC2(C)C1C=CC2(C)O (stereo not drawn) [A, 1'-mesyl-17α-methyl-1'H-androsta-4,15-dieno[3,2-c]pyrazol-17β-ol] | 80 | No |  |  |  |  |  |
| CC12Cc3cn(S(C)(=O)=O)nc3C=C1C1(CC1)CC1C2CCC2(C)C1CCC2(C)O (stereo not drawn) [B, 6,6-ethylene-1'-mesyl-17α-methyl-1'H-androst-4-eno[3,2-c]pyrazol-17β-ol] | 73 | No |  |  |  |  |  |
| CC1CC2=Cc3nn(S(C)(=O)=O)cc3CC2(C)C2CCC3(C)C(CCC3(C)O)C12 (stereo not drawn) [C, 7α,17α-dimethyl-1'-mesyl-1'H-androst-4-eno[3,2-c]pyrazol-17β-ol] | 53 | No |  |  |  |  |  |
| CC(=O)O[C@]1(C(C)=O)CC[C@H]2[C@@H]3C=C(Cl)C4=CC(=O)[C@@H]5C[C@@H]5[C@]4(C)[C@H]3CC[C@@]21C [Cyproterone Acetate, 17α-acetoxy-6-chlor-1α,2α-methylene-4,6-pregnadiene-3,20-dione] |  |  | 97% and 86% and 87% and 95% and 100% | affecting, as does the latter compound, the hypothalamus-hypophysis system |  |  |  |
| CC12Cc3nn(S(C)(=O)=O)nc3C=C1CCC1C2CCC2(C)C1C=CC2(C)O (stereo not drawn) [D, 2'-mesyl-17α-methyl-2'H-triazolo[4',5':2,3]androsta-4,15-dien-17β-ol] | 97 | No |  |  |  |  |  |
| CC1=C2CCC3C(CCC4(C)C3CCC4(C)O)C2(C)Cc2cn(S(C)(=O)=O)nc21 (stereo not drawn) [E, 4,17α-dimethyl-1'-mesyl-1'H-androst-4-eno[3,2-c]pyrazol-17β-ol] | 88 | Yes |  |  | raises the testosterone level in the serum | no peripheral selectivity | comparable to cyproterone acetate |
